Laboratory results reported in patent US20220039383A1, “Use of the Succinate Dehydrogenase Inhibitor Fluopyram for Controlling Claviceps Purpurea and Reducing Sclerotia in Cereals” (Bayer Aktiengesellschaft, priority 2018, published 2022).

Legend:
[1] = tested on: Claviceps purpurea; experiment: Field test plot 2017, Canada: foliar application, assessment of sclerotia (ergot bodies) in spring wheat CTC Utmost; type: in vivo; conditions: EC 150 g/l, 1.333 L/HA, 200 g/ha, applied BBCH 59-61, 96 days post application
Description: (§1) In Canada, in 2017, a test plot was conducted with the spring wheat variety CTC Utmost. Fluopyram as well as market standards were applied according to table 1 on July 7th between BBCH stage59 and 61 (. Assessment of sclerotia was done in fall 2017 96 days post application.

[2] = tested on: spring wheat variety CTC Utmost; experiment: Field test plot 2017, Canada: yield of spring wheat treated against Claviceps purpurea; type: in vivo; conditions: EC 150 g/l, 1.333 L/HA, 200 g/ha, untreated = 100
Description: as §1

Compound: O=C(NCCc1ncc(C(F)(F)F)cc1Cl)c1ccccc1C(F)(F)F [Fluopyram, N-{[3-chloro-5-(trifluoromethyl)-2-pyridinyl]ethyl}-2-trifluoromethylbenzamide]
- Number of Ergot bodies per kg seed [1]: 5 per kg seed
- % yield compared to Untreated [2]: 109.85%
